Assay results from US8962681B2, “Use of aminoacetonitrile derivatives against endoparasites” (Zoetis LLC, priority 2011, dated 2015).
Read-outs that look alike come from different tables or passages of the source.

Columns and labels:
[1] = test system: Dirofilaria immitis microfilariae; assay: in vitro microwell motility assay against heartworm microfilariae; type: cell-based; settings: microfilaria from canine blood, 384 well plate, 72 hours incubation at 37° C. and 5% CO2, LemnaTec Scanalyzer
[2] = test system: L4 stage larvae of D. immitis; assay: L4 stage larvae motility/kill assay; type: cell-based, Dirofilaria immitis
[3] = screened at 10 μM in duplicate, 96-well plate, motility observed at 4, 24, 48 and 72 hours, endpoint defined as ED80 (80% of larvae killed)

CC(C#N)(COc1ccc(F)cc1Cl)NC(=O)c1ccc(S(F)(F)(F)(F)F)cc1 (centres unmarked) [test compound 18, N-[2-(2-chloro-4-fluorophenoxy)-1-cyano-1-methylethyl]-4-(pentafluorothio)-benzamide]
ED50 (dose at which the overall microfilaria motility was reduced by 50% compared to that of an untreated control) [1]: 33 µM
active against L4 D. immitis at 10 μM [2, 3]: active

COc1ccc(OCC(C)(C#N)NC(=O)c2ccc(S(F)(F)(F)(F)F)cc2)c(C(F)(F)F)c1 (centres unmarked) [test compound 42, N-{1-cyano-2-[4-methoxy-2-(trifluoromethyl)phenoxy]-1-methylethyl}-4-(pentafluorothio)benzamide]
ED50 (dose at which the overall microfilaria motility was reduced by 50% compared to that of an untreated control) [1]: 33 µM
active against L4 D. immitis at 10 μM [2, 3]: active

CC(C#N)(COc1ccccc1Cl)NC(=O)c1ccc(S(F)(F)(F)(F)F)cc1 (centres unmarked) [test compound 16, N-[2-(2-chlorophenoxy)-1-cyano-1-methylethyl]-4-(pentafluorothio)benzamide]
ED50 (dose at which the overall microfilaria motility was reduced by 50% compared to that of an untreated control) [1]: 33 µM
active against L4 D. immitis at 10 μM [2, 3]: active

CC(C#N)(COc1ccc(Cl)cc1Cl)NC(=O)c1ccc(S(F)(F)(F)(F)F)cc1 (centres unmarked) [test compound 8, N-[1-cyano-2-(2,4-dichlorophenoxy)-1-methylethyl]-4-(pentafluorothio)benzamide]
active against L4 D. immitis at 10 μM [2, 3]: active

CC(C#N)(COc1cc(C#N)ccc1C(F)(F)F)NC(=O)c1ccc(S(F)(F)(F)(F)F)cc1 (centres unmarked) [test compound 1, N-{1-cyano-2-[5-cyano-2-(trifluoromethyl)phenoxy]-1-methylethyl}-4-(pentafluorothio)benzamide]
ED50 (dose at which the overall microfilaria motility was reduced by 50% compared to that of an untreated control) [1]: 10 µM
active against L4 D. immitis at 10 μM [2, 3]: active

C[C@](C#N)(COc1ccc(C#N)cc1C(F)(F)F)NC(=O)c1ccc(S(F)(F)(F)(F)F)cc1 [test compound 51a]
ED50 (dose at which the overall microfilaria motility was reduced by 50% compared to that of an untreated control) [1]: 10 µM
active against L4 D. immitis at 10 μM [2, 3]: active

CO/N=C1\C[C@]2(C[C@@H]3C[C@@H](C/C=C(\C)C[C@@H](C)/C=C/C=C4\CO[C@@H]5[C@H](O)C(C)=C[C@@H](C(=O)O3)[C@]45O)O2)O[C@H](/C(C)=C/C(C)C)[C@H]1C [moxidectin, reference compound]
active against L4 D. immitis at 10 μM [2, 3]: active

CC(C#N)(COc1ccc(Cl)cc1C#N)NC(=O)c1ccc(S(F)(F)(F)(F)F)cc1 (centres unmarked) [test compound 11, N-[2-(4-chloro-2-cyanophenoxy)-1-cyano-1-methylethyl]-4-(pentafluorothio)-benzamide]
active against L4 D. immitis at 10 μM [2, 3]: active

CC(C#N)(COc1ccc(-c2ccncc2)cc1C(F)(F)F)NC(=O)c1ccc(S(F)(F)(F)(F)F)cc1 (centres unmarked) [test compound 81, N-{1-cyano-1-methyl-2-[4-pyridin-4-yl-2-(trifluoromethyl)phenoxy]ethyl}-4-(pentafluorothio)benzamide]
ED50 (dose at which the overall microfilaria motility was reduced by 50% compared to that of an untreated control) [1]: 3.3 µM
active against L4 D. immitis at 10 μM [2, 3]: active

CC(C#N)(COc1ccc(I)cc1)NC(=O)c1ccc(S(F)(F)(F)(F)F)cc1 (centres unmarked) [test compound 13, N-[1-cyano-2-(4-iodophenoxy)-1-methylethyl]-4-(pentafluorothio)benzamide]
active against L4 D. immitis at 10 μM [2, 3]: active

milbemycin oxime [reference compound]
active against L4 D. immitis at 10 μM [2, 3]: active

CO[C@H]1C[C@H](O[C@@H]2/C(C)=C/C[C@@H]3C[C@@H](C[C@]4(CC[C@H](C)[C@@H](C5CCCCC5)O4)O3)OC(=O)[C@@H]3C=C(C)/C(=N/O)[C@H]4OC/C(=C\C=C\[C@@H]2C)[C@]43O)O[C@@H](C)[C@@H]1O [Selamectin, reference compound]
active against L4 D. immitis at 10 μM [2]: active

CC(C#N)(COc1ccc(C#N)cc1Br)NC(=O)c1ccc(S(F)(F)(F)(F)F)cc1 (centres unmarked) [test compound 29, N-[2-(2-bromo-4-cyanophenoxy)-1-cyano-1-methylethyl]-4-(pentafluorothio)-benzamide]
active against L4 D. immitis at 10 μM [2, 3]: active

CC(C#N)(COc1ccc(C#N)cc1C(F)(F)F)NC(=O)c1ccc(S(F)(F)(F)(F)F)cc1 (centres unmarked) [test compound 7, N-{1-cyano-2-[4-cyano-2-(trifluoromethyl)phenoxy]-1-methylethyl}-4-(pentafluorothio)benzamide]
active against L4 D. immitis at 10 μM [2, 3]: active

CC(C#N)(NC(=O)c1ccc(S(F)(F)(F)(F)F)cc1)C1Cc2cc(C#N)cc(Cl)c2O1 (centres unmarked) [test compound 80, N-[1-(7-chloro-5-cyano-2,3-dihydro-1-benzofuran-2-yl)-1-cyanoethyl]-4-(pentafluorothio)benzamide]
ED50 (dose at which the overall microfilaria motility was reduced by 50% compared to that of an untreated control) [1]: 3.3 µM
active against L4 D. immitis at 10 μM [2, 3]: active

Cc1ccc(C#N)cc1OCC(C)(C#N)NC(=O)c1ccc(S(F)(F)(F)(F)F)cc1 (centres unmarked) [test compound 43, N-[1-cyano-2-(5-cyano-2-methylphenoxy)-1-methylethyl]-4-(pentafluorothio)benzamide]
ED50 (dose at which the overall microfilaria motility was reduced by 50% compared to that of an untreated control) [1]: 10 µM
active against L4 D. immitis at 10 μM [2, 3]: active

CC(C#N)(COc1ccc(Cl)cc1)NC(=O)c1ccc(S(F)(F)(F)(F)F)cc1 (centres unmarked) [test compound 10, N-[2-(4-chlorophenoxy)-1-cyano-1-methylethyl]-4-(pentafluorothio)benzamide]
active against L4 D. immitis at 10 μM [2, 3]: active

CC(C#N)(COc1cc(C#N)ccc1Oc1ccccc1)NC(=O)c1ccc(S(F)(F)(F)(F)F)cc1 (centres unmarked) [test compound 60, N-[1-cyano-2-(5-cyano-2-phenoxyphenoxy)-1-methylethyl]-4-(pentafluorothio)benzamide]
ED50 (dose at which the overall microfilaria motility was reduced by 50% compared to that of an untreated control) [1]: 3.3 µM
active against L4 D. immitis at 10 μM [2, 3]: active

CC(C#N)(COc1ccccc1C(F)(F)F)NC(=O)c1ccc(S(F)(F)(F)(F)F)cc1 (centres unmarked) [test compound 14, N-{1-cyano-1-methyl-2-[2-(trifluoromethyl)phenoxy]ethyl}-4-(pentafluorothio)-benzamide]
ED50 (dose at which the overall microfilaria motility was reduced by 50% compared to that of an untreated control) [1]: 10 µM
active against L4 D. immitis at 10 μM [2, 3]: active
